Article PMC7651685 (Psychopharmacology, 2020)
Where “and” joins values, the source holds several entries; their conditions need not be identical. Equal values may be shown once. Where a name gives a salt, the structure may show the parent alone.

Legend:
plasma protein = assay: Plasma protein binding; conditions: for Free plasma concentration (fraction): as fraction; for Free plasma concentration (fraction) / Free plasma concentration: from plasma protein binding
[1] = system: dopamine efflux in the nucleus accumbens; design: method as in Rowley et al. [2017]; conditions: rat nucleus accumbens microdialysis; ref Rowley et al. [2017]; cited from earlier work
DAT [2] = system: DAT; design: method as in Hasenhuetl et al. [2015]; conditions: ref Hasenhuetl et al. [2015]; cited from earlier work
D2 receptors = assay: [11C]-Raclopride PET: elevation of synaptic dopamine
Protocol: Two female rhesus macaques (weight, 8.4 ± 0.2 kg; age, 16.6 ± 0.5) were scanned with [^11C]-Raclopride a total of 8 times, each under 4 scanning conditions per test agent. All scans were performed with [^11C]-Raclopride (tracer mass limited to 0.25 μg/kg) administered as an intravenous (i.v.) bolus + constant infusion (3 min bolus +132 min infusion; Kbol = 60 min; injected dose 5.8 ± 1.0 mCi). Scan data collection began simultaneously with tracer injection using the Siemens FOCUS 220 PET scanner. The scan data was acquired for 135 min and binned into sinograms with the following frame timing: 6 × 30 s; 3 × 1 min; 2 × 2 min; and 25 × 5 min. Prior to each tracer injection, a transmission scan was performed with an external gamma source for attenuation correction.
Experiment day 1 consisted of an initial [^11C]-Raclopride injection with MPH given i.v. at 45 min post-start of tracer administration under tracer steady-state conditions (displacement experiment). A second [^11C]-Raclopride scan was initiated ~ 2.5–3.5 h after the start of scan 1. Experiment day 2 consisted of a MPH pre-block initiated ~ 30 min prior to the first scan. A second scan was again initiated ~ 2.5–3.5 h after the start of scan 1. This same 2-day scanning paradigm was completed for both subjects and repeated using DAS in place of MPH. The test agent doses used were 0.2 mg/kg for DAS and 0.5 mg/kg for MPH. A minimum of 2-week recovery time was allowed between scans with the same subject.
Dynamic scan data were reconstructed with a filtered back-projection algorithm with corrections for attenuation, normalization, scatter, and randoms. ROIs were manually delineated on a single representative anatomical rhesus monkey magnetic resonance image (MRI) registered to a template image. Regions used in this study were caudate and putamen with the cerebellum as the reference region. Registration parameters were obtained to apply the ROIs to individual PET scans, and regional TACs were generated for the ROIs. Apparent binding potential (BPND) curves (target-to-cerebellum ratio - 1) were calculated for putamen and caudate by pooling the data from the 4 injections for each animal/drug combination. The following models were used to describe the apparent BPND curves. Model 1 is based on a gamma function where the occupancy increases, reaches a maximum, and then decreases, and both phases can be measured in the study. Model 2 has only increasing occupancy with time, approaching an asymptotic value. • Model 1: Four-parameter model (gamma function):
The change of BPND over time is modeled using a gamma function. BPNDt=BP01−At−t0^αexp−βt−t0t≥t0
The model can be reformulated as follows: BPNDt=BP01−Occ^maxt−t0/tmax−t0^αexpα1−t−t0/tmax−t0t≥t0α≡−ln2/1−τ+lnττ≡t1/2,R−t0/tmax−t0τ<1ort1/2,F−t0/tmax−t0τ>1 where t0 is the known time of drug administration and BP0 is the apparent BPND at time t0. The maximum occupancy, Occ^max, is obtained at time, tmax. The occupancy rises to 50% of Occ^max at the time, t1/2,R (< tmax), and falls to 50% of Occ^max at time, t1/2,F (> tmax). The 4 parameters of this model are BP0, Occ^max, tmax, and t1/2,R (or t1/2,F). • Model 2: Three-parameter model: BPNDt=BP01−Occ^max1−exp−βt−t0,β=ln2/t1/2,R−t0t≥t0
The parameters of this model are BP0, Occ^max, and t1/2,R.

P-gp = conditions: LLC-PK1 cell monolayers and Xenopus Laevis Oocytes; Data-on-file; ref Sunovion Reports #531, 544, 575; cited from earlier work
[3] = system: efflux transporters of the ATP binding cassette (ABC) superfamily; conditions: LLC-PK1 cell monolayers and Xenopus Laevis Oocytes; Data-on-file; ref Sunovion Reports #531, 544, 575; cited from earlier work
[4] = rodent, 14C-DAS; Data-on-file; ref Sunovion report 360-365; cited from earlier work
[5] = orally administered, recreational stimulant users; ref Koblan et al. [2016]; cited from earlier work
[6] = system: solute carrier (SLC) and organic anion transporters (OAT); conditions: LLC-PK1 cell monolayers and Xenopus Laevis Oocytes; Data-on-file; ref Sunovion Reports #531, 544, 575; cited from earlier work
DAT [7] = conditions: ref Rowley et al. [2017]; read-out: Affinity for DAT, IC50; cited from earlier work
[8] = MPH 0.5 mg/kg i.v., model 1 fit
[9] = DAS 0.2 mg/kg i.v., model 2 fit

SMILES | Free plasma concentration higher than that of DAS (plasma protein; MPH relative to DAS) [fold] | Free plasma concentration (fraction) (plasma protein) | Free plasma concentration (plasma protein) [%] | Time of peak of dopamine efflux [1] [min] | Association rate (kon) to DAT (DAT [2]) [M⁻¹ s⁻¹] | Maximum reduction in [11C]-raclopride binding (Occmax) in caudate and putamen (D2 receptors; [8]) [%] | Time for half-maximal displacement (t1/2,R) of [11C]-raclopride (D2 receptors; [8]) [min] | Time for half-maximal displacement of [11C]-raclopride shorter than for DAS (D2 receptors; MPH 0.5 mg/kg relative to DAS 0.2 mg/kg) [fold] | Substrate for P-gp (P-gp) | Substrate for other efflux transporters of the ABC superfamily [3] | Time to reach maximum effect on dopamine efflux post-dose [1] | brain:plasma ratio/partition coefficient (Kp) [4] | Potential for abuse [5] | Active uptake by SLC and OAT transporters [6] | IC50 (DAT [7]) [nM] | Maximum reduction in [11C]-raclopride binding (Occmax) in caudate and putamen (D2 receptors; [9]) [%] | Time for half-maximal displacement (t1/2,R) of [11C]-raclopride (D2 receptors; [9]) [min] | Time to 50% maximum displacement of [11C]-Raclopride / elevation of synaptic DA slower than MPH (D2 receptors; DAS relative to MPH)
COC(=O)C(c1ccccc1)C1CCCCN1 (racemic) [MPH, (±)-Methyl α-Phenyl-α-(2-piperidyl)acetate hydrochloride, reference compound] | ~30 | 0.86 | 86 | 40 | 830000 | 27 | 23 | 4 | – | – | – | – | – | – | – | – | – | –
N[C@@H]1CC[C@@H](c2ccc(Cl)c(Cl)c2)c2ccccc21 [DAS, (1R,4S)-4-(3,4-dichlorophenyl)-1,2,3,4-tetra-hydronaphthalen-1-amine] | – | 0.03 | 3 | – | – | – | – | – | not a substrate | not a substrate | up to 2 h | 6.2–12.3 | low potential for abuse compared with MPH | not actively taken up | 3 | 29 | 88 | ~ 4 fold and 4 fold
